Reference: US20250034139A1, “AMINE COMPOUNDS HAVING ANTI-INFLAMMATORY, ANTIFUNGAL, ANTIPARASITIC, AND ANTICANCER ACTIVITY” (PHARMA CINQ, LLC, priority 2013, published 2025)
Marks after values point to notes of the source that are not given here.

Assays:
[1] = test system: HCT-116 colon adenocarcinoma cells; assay: Example Q: HCT-116 liver metastases of human colorectal cancer in nude mice; type: in vivo; conditions: 240 μmol/kg/day oral, 28 days
Source text: A major cause of morbidity and mortality in patients with colorectal cancer is metastasis of the tumor into the liver; colorectal cancer can often be successfully resected from the primary site, but metastases to the liver are much less accessible to surgical treatment. A mouse model of colorectal cancer metastasis to the liver has been established, using HCT-116 colon adenocarcinoma cells injected into the spleen of athymic (nude) mice. The HCT-116 cancer cells spontaneously spread from the spleen into the liver via the circulation, and they form tumors in the liver (Ishizu, K., Sunose, N., Yamazaki, K., Tsuruo, T., Sadahiro, S., Makuuchi, H., and Yamori, T. Development and Characterization of a Model of Liver Metastasis Using Human Colon Cancer HCT-116. Biol. Pharm. Bull. 2007, 30(9):1779-1783).
Mice (female Hsd:athymic nude-Foxn1^nu) were anesthetized with xylazine/ketamine intraperitoneal injection, followed by incision approximately 10 mm on the left subcostal region (area disinfected with ethanol) to expose the peritoneum. The peritoneum was opened for about 8 mm near the spleen, and 2.5×10^6 cells in 50 μL PBS were injected into the spleen using a 30G needle. The spleen was repositioned, and the surgical area was closed using sutures and clips.
The day after receiving cells, mice were randomized into groups of five based upon body weight to provide groups with approximately equivalent mean body weight. Mice received a single, daily oral dose of test article or vehicle (1% hydroxypropylmethylcellulose) beginning 48 hours following cell injection into the spleen.
At study termination 28 days after HCT-116 cell injection, body weights were recorded, and spleens and livers were removed, weighed and fixed in 10% formalin. Livers were sectioned and stained; the relative areas of normal and tumor tissue were quantified in histology sections with quantitative planimetry software.

[2] = test system: Hep3B hepatocellular carcinoma cell line; conditions: for Tumor Weight (g) Mean ± SEM: Hep3B in liver of nude mice, day 35, oral daily, sorafenib 30 mg/kg/day alone, 20 mg/kg/day in combination, AC 180, AK and AB 360 μmol/kg/day; for Body Weight (g) Mean ± SEM Initial: in vivo; for Complete Regressions: number of mice with no viable tumor at necropsy, doses as Table 35
Source text: Hepatocellular carcinoma (HCC) is one of the most common and lethal cancers worldwide, generally developing as a consequence of chronic infection with hepatitis B or C viruses. […] The Hep3B hepatocellular carcinoma cell line is human in origin, contains genetic traces of hepatitis B virus, and can be injected into the livers of athymic immunocompromised mice as a model of primary HCC. […] The test compounds were all administered orally.
The test compounds of the invention were suspended in 1% hydroxypropylmethylcellulose (HPMC) using a sonicator equipped with a microtip to minimize particle size and maximize uniformity of the suspension. Sorafenib was dissolved in a 1:1 mixture of Cremophor EL and ethanol by heating to 60° C. for 1 minute and then sonicating for 10 minutes to fully suspend. Female nude mice (Hsd:athymic nude-Foxn1^nu) weighing approximately 25 g were anesthetized with ketamine/xylazine, laid on their backs, and a 1-cm transverse incision made through the skin and peritoneum of the left upper abdomen. The mediant lobe of the liver was exposed by applying gentle pressure on the abdomen. 1.5-2×10^6 Hep3B cells in a 20 μL volume of matrigel:EMEM serum free (1:1) were slowly implanted by subserosal injection into the liver using a 27-gauge needle on a Hamilton syringe. The liver was allowed to slip back into place, and the peritoneum was closed with sutures and wound clips.
Mice were divided into 8 groups of mice each following injection of cells; the vehicle/vehicle group comprised 12 mice and the other groups comprised 8 or 9. Mice began receiving oral test drug treatments 48 hr post cell injection.
The test compounds, sorafenib, and vehicles were administered by oral gavage. Sorafenib or its cremophor-containing vehicle were given in the morning and compounds of the invention or their HPMC vehicle was administered in the afternoon each day; all animals received two gavage treatments of drugs or appropriate vehicles daily.

[3] = test system: EAE induced by PLP139-151; assay: Example G: Experimental Autoimmune Encephalitis (EAE) mouse model of multiple sclerosis; type: in vivo
[4] = test system: Vit-D3 activated THP-1 cells; assay: Example B: JC-1 mitochondrial loading (mitochondrial membrane potential); type: cell-based, Human; conditions: 5 hours
Description: In this experiment, cell viability was monitored and uptake and accumulation of acridine orange, a lysosomotropic fluorescent dye, was used to assess lysosomal acidification and integrity. JC-1 dye was used to measure effects of test compounds on mitochondrial membrane potential (MMP); reduction of MMP is a feature of apoptotic cell death.
• 1. Vit-D3 activated THP-1 cells (0.5×10^6 cells in 2 ml) were transferred to the wells of a 24-well dish • 2. […] […] LPS from E. coli 0111:B4 (1 ng/ml final concentration) was added to some wells • 5. After 5 hours viable cell count, Acridine Orange (A.O.) uptake and JC-1 mitochondrial loading were determined by fluorescence-activated cell sorting (FACS)
THP-1 cells (p39) treated with 0.1 μM vit-D3 (100 μM) in DMSO] for 3 days were counted, spun down, resuspended in serum-free RPMI (Lonza 12-115F) and transferred to the wells of two 24-well dishes (0.5×10^6 cells in 2 ml). […] Crude-LPS from E. coli 0111:B4 was added to some wells (1 ng/ml final conc) and the plates placed in a 37 C incubator. 1 μl of Baf A1 (50 nM final conc) was added to one well (no LPS) at T=4 hours to serve as a compensation control for Acridine Orange loading. After 5 hours, 500 μl aliquots of cells were transferred to FACS tubes and viable cell counts, A.O. loading and JC-1 accumulation determined by FACS.

[5] = test system: Vit-D3 activated THP-1 cells; assay: Example B: Acridine Orange (A.O.) uptake, lysosomal acidification and integrity; type: cell-based, Human; conditions: 5 hours
Description: In this experiment, cell viability was monitored and uptake and accumulation of acridine orange, a lysosomotropic fluorescent dye, was used to assess lysosomal acidification and integrity. JC-1 dye was used to measure effects of test compounds on mitochondrial membrane potential (MMP); reduction of MMP is a feature of apoptotic cell death. • 1. […] The tubes were washed twice in DPBS, resuspended in 500 μl DPBS and acquired on the FACSCalibur.

[6] = HCT-116 liver metastases, nude mice

For `CCCCCCOc1ccc(CNc2ccnc3ccccc23)cc1` [AA, N-[4-(Hexyloxy)benzyl]quinolin-4-amine], the “Final Body Weight Grams” value [1, 6] was 28.2 ± 1.5 NS Grams, the “Liver Weight % of Body Weight” value [1, 6] was 5.3 ± 0.2% and the “Tumor Area % of Vehicle Group” value [1, 6] was 1.5% *. The “Tumor Area % of Total Liver” value ([1]; HCT-116 liver metastases, nude mice, histology planimetry) was 0.2 ± 0.26%.

With `CCCCCCOc1cccc(CNc2ncnc3ccccc23)c1` [AK, N-[3-(Hexyloxy)benzyl]quinazolin-4-amine] the “Tumor Weight (g) Mean ± SEM” value [2] was 1.56 ± 0.39^ g, the “Body Weight (g) Mean ± SEM Initial” value [2] was 25.9 ± 0.7 g and the “Complete Regressions” value ([2]; day 35) was 2. For the same compound, the “reduction of tumor size versus vehicle” value ([2]; single agents, oral, day 35, sorafenib 30 mg/kg/day) was “numerically but not statistically significant reduction in tumor size versus vehicle”.

With `CCCCCCOc1cccc(OCCCNc2ccnc3ccccc23)c1` [AZ, N-{3-[3-(Hexyloxy)phenoxy]propyl}quinolin-4-amine] the “EAE Score on Day 46” value ([3]; 60 μmol/kg by oral gavage from Day 14, score 0-5) was 2.50 ± 0.29 and the “EAE Score on Day 14 (Before Treatment)” value ([3]; baseline, score 0-5) was 0.83 ± 0.41.

For `CCCCCCOc1cccc(CNc2ccnc3ccccc23)c1` [Compound AC, N-[3-(Hexyloxy)benzyl]quinolin-4-amine], the “excess of the Vehicle group's liver weight/body weight ratio over the treated group” value [1] was 12%, the “area of liver invaded by metastatic cancer cells, in words” value ([1]; histology planimetry) was “markedly reduced the area of liver invaded by metastatic cancer cells” and the “JC-1 Red cells (functional mitochondria) percent change from DMSO (no LPS), Mean ± SE” value ([4]; 0.1 μM AC, 1 ng/ml LPS) was −1.66 ± 0.96%. The “JC-1 Red cells (functional mitochondria) percent change from DMSO (no LPS), Mean ± SE” value ([4]; 0.1 μM AC, No LPS) was 1.18 ± 0.91%, the “JC-1 Red cells (functional mitochondria) percent change from DMSO (no LPS), Mean ± SE” value ([4]; 0.5 μM AC, 1 ng/ml LPS) was −7.19 ± 1.52% and the “JC-1 Red cells (functional mitochondria) percent change from DMSO (no LPS), Mean ± SE” value ([4]; 0.5 μM AC, No LPS) was −4.39 ± 1.40%. For the same compound, the “JC-1 Red cells (functional mitochondria) percent change from DMSO (no LPS), Mean ± SE” value ([4]; 1.0 μM AC, 1 ng/ml LPS) was −16.41 ± 2.60%, the “JC-1 Red cells (functional mitochondria) percent change from DMSO (no LPS), Mean ± SE” value ([4]; 1.0 μM AC, No LPS) was −10.40 ± 2.08% and the “A.O. FL-3 fluorescence (MFI) percent change from DMSO no LPS, Mean ± SE” value ([5]; 0.1 μM AC, 1 ng/ml LPS) was −54.72 ± 2.74%. For the same compound, the “A.O. FL-3 fluorescence (MFI) percent change from DMSO no LPS, Mean ± SE” value ([5]; 0.1 μM AC, No LPS) was −27.64 ± 9.68%, the “A.O. FL-3 fluorescence (MFI) percent change from DMSO no LPS, Mean ± SE” value ([5]; 0.5 μM AC, 1 ng/ml LPS) was −68.24 ± 2.39% and the “A.O. FL-3 fluorescence (MFI) percent change from DMSO no LPS, Mean ± SE” value ([5]; 0.5 μM AC, No LPS) was −54.59 ± 4.05%. For the same compound, the “A.O. FL-3 fluorescence (MFI) percent change from DMSO no LPS, Mean ± SE” value ([5]; 1.0 μM AC, 1 ng/ml LPS) was −81.11 ± 2.65%, the “A.O. FL-3 fluorescence (MFI) percent change from DMSO no LPS, Mean ± SE” value ([5]; 1.0 μM AC, No LPS) was −69.52 ± 2.05% and the “Tumor Weight (g) Mean ± SEM” value [2] was 0.49 ± 0.17 g. For the same compound, the “Body Weight (g) Mean ± SEM Initial” value [2] was 25.4 ± 0.5 g and the “Complete Regressions” value ([2]; day 35) was 2.
